Experimental data reported in patent US8148578B2, “Fast acting naratriptan composition” (Emisphere Technologies Inc., priority 2008, dated 2012).
Read-outs that look alike come from different tables or passages of the source.

What was measured:
[1] = cited from earlier work
[2] = Oral pharmacokinetics of naratriptan in rats, alone or combined with an absorption enhancer carrier; format: in vivo, Sprague-Dawley rats; conditions: Nar 10 mg/kg, carrier 200 mg/kg
Procedure: In the present invention, the delivery system is the pharmaceutical formulations which may be in the form of a liquid or solid. Liquid formulations may be water-based. The absorption enhancer was dissolved in deionized water. 10 N NaOH solution was used to help dissolving acid form carriers. HCl was added to lower pH of the absorption enhancer stock solution if the pH was higher than 7.4. Naratriptan powder was added to the absorption enhancer solution 5 minutes before dosing. The final concentration of drug was 10 mg/ml, and the final concentration of carrier was 200 mg/ml for the study.
Naratriptan is also designated Nar. Naratriptan was administered alone to rates orally as a control. For oral dosing, single solutions were administrated at time 0, in the following manner: (a) each absorption enhancer carrier (200 mg/kg) in combination with Nar (10 mg/kg) was administered orally to rats; and (b) Nar (10 mg/kg) alone was administered orally to rats. Blood samples were collected by retro-orbital bleed under CO2 anesthesia pre-dosing (0 minute), and 5, 15, 30, 40, 50, 60, 120 and 240 minutes after dosing. […] Both, the Nar/2-HPOD and Nar/2-HPHM combination took approximately ½ the time of Naratriptan alone. […] Also the mean Cmax value of the Nar/4-PPED combination was approximately 2-fold higher compared to that obtained following Naratriptan alone.

[3] = Sprague-Dawley, rat, naratriptan in plasma, fasted male rats, single oral dose, n=5

time of mean peak Naratriptan plasma concentration post-dose ([2]; Example 1, rats, oral): 27 min | Cmax [2, 3]: 1050 ng/mL | Tmax [2, 3]: 27 min | AU Clast ([2]; naratriptan in plasma, fasted male rats, single oral dose, n=5): 62851 ng·min/mL
Structure (SMILES): CNS(=O)(=O)CCc1ccc2[nH]cc(C3CCN(C)CC3)c2c1 [Naratriptan]
time to peak concentrations ([1]; 2.5 mg tablet orally): 2 to 3 h | Tmax ([1]; during a migraine attack): 180 to 240 min | oral bioavailability ([1]; naratriptan tablets): about 70%
